Where two headings read alike, the source gives them in different places.
Columns and labels:
[1] = target: T1, organic cation transporter (OCT)2 (Homo sapiens, UniProt O15244); test: In vitro inhibition of OCT2 activity; assay type: in vitro ADME; details: read-out: 50% inhibitory concentration (IC50), OCT2
T1 sequence (O15244 1-555): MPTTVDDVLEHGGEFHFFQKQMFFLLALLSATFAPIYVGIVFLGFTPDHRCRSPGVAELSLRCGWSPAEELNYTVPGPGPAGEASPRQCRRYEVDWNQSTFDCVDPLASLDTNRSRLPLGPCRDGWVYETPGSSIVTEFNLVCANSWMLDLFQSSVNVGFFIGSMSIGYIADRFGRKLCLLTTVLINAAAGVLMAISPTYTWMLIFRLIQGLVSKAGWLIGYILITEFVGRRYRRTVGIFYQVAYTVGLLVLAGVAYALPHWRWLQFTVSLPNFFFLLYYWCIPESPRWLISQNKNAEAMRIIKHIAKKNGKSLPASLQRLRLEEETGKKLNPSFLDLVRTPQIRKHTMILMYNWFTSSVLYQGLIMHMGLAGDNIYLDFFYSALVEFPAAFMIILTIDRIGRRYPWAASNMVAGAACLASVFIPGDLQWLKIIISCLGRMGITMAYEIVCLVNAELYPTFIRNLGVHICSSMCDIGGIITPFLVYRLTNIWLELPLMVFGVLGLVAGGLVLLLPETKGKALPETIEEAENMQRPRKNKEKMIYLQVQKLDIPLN

[2] = Example 1: plasma tucatinib trough concentrations; assay type: in vivo, human; details: 300 mg tucatinib bid from Day 2
CYP3A4/5 = test: Cytochrome P450 3A4/5 inhibition in human liver microsomes (Example 4); assay type: in vitro ADME; details: both sexes, pooled human liver microsomes
Description: This in vitro study was designed to evaluate the ability of tucatinib to inhibit the major CYP enzyme CYP3A4/5 in human liver microsomes (using two different substrates) with the aim of ascertaining the potential of tucatinib to inhibit the metabolism of concomitantly administered drugs. The inhibitory potency of tucatinib was determined in vitro by measuring the activity of CYP3A4/5 in human liver microsomes in the presence and absence of tucatinib. […] Metabolism-dependent inhibition was further evaluated to determine how quickly (kinact value) and to what extent (Ki value) tucatinib inactivates CYP3A4/5.
Human liver microsomes from non-transplantable, donated livers were prepared and characterized. A mixed-gender pool of 200 individual human liver microsomal samples was used for this study (Sekisui XenoTech catalog number: H2620, lot number: 1210347).
To measure CYP activity, incubations were conducted at approximately 37° C. in 200 μL incubation mixtures (pH 7.4) containing water, potassium phosphate buffer (50 mM), MgCl2 (3 mM), EDTA (1 mM), an NADPH-regenerating system (always the mixture of the following: NADP [1 mM], glucose 6 phosphate [5 mM], glucose 6 phosphate dehydrogenase [1 Unit/mL]), and marker substrate at the final concentrations indicated.
Aliquots of the stock and/or working solutions of tucatinib were manually added to buffer mixtures described above. Incubation mixtures were prepared in bulk to obviate the need for directly pipetting very small volumes (i.e., 1 μL or less). Incubations containing no tucatinib (0 μM; Solvent Control) contained the solvent used to dissolve tucatinib (i.e., DMSO).
The Tecan liquid handling system conducted all remaining steps for the IC50 and Kl/kinact determinations, with the exception of the centrifugation. For these assays, duplicate aliquots of the buffer mixtures were automatically added to 96-well plates at the appropriate locations. Aliquots of a substrate working solution were added to the 96-well plates prior to initiating reactions. Marker substrate reactions were initiated by the addition of an aliquot of an NADPH-regenerating system and were automatically terminated at approximately 5 min by the addition of the appropriate internal standard and stop reagent, acetonitrile. The samples were centrifuged at 920×g for 10 min at 10° C. The supernatant fractions were analyzed by LC-MS/MS. Standards were similarly prepared with the addition of authentic metabolite standards.
Due to the possibility that tucatinib may bind to microsomal protein or lipids, an attempt was made to design these experiments such that, in as many cases as possible, the microsomal protein, incubation time and buffer concentration were 0.1 mg/mL, 5 min and 50 mM, respectively.
To examine its ability to act as a direct inhibitor of enzymes, tucatinib (at concentrations ranging from 0.01 to 10 μM) was incubated with marker substrate and human liver microsomes. The concentrations of marker substrates were based on the Km or S50 data that were determined previously.
To examine its ability to act as a metabolism-dependent inhibitor of CYP3A4/5 enzymes, tucatinib (at the same concentrations used to evaluate direct inhibition) was preincubated at 37±2° C., in duplicate, with human liver microsomes and an NADPH-regenerating system for approximately 30 min. This preincubation allowed for the generation of intermediates that could inhibit human CYP3A4/5 activity. The preincubations were initiated by the addition of an aliquot of an NADPH-regenerating system. To examine its ability to act as a time-dependent inhibitor of CYP3A4/5 enzymes, additional duplicate samples at all tucatinib concentrations were preincubated for 30 min in the presence of pooled human liver microsomes, but in the absence of NADPH. This preincubation allowed assessment of whether any potential increase in inhibition was dependent upon NADPH (e.g., potentially CYP-mediated). […]

## Cc1cc(Nc2ncnc3ccc(NC4=NC(C)(C)CO4)cc23)ccc1Oc1ccn2ncnc2c1 [tucatinib]
[1]
  IC50: 14.7 µM
[2]
  Steady-state plasma concentrations reached by: ≤ 6 days
CYP3A4/5; human, pH 7.4, probe midazolam (1′-hydroxylation), midazolam 1′-hydroxylation, read-out: Efficiency of inactivation (kinact/KI) (converted)
  kinact/KI: 350 M⁻¹ s⁻¹
CYP3A4/5; human, pH 7.4, probe midazolam (1′-hydroxylation), read-out: IC50, direct inhibition of CYP3A4/5-mediated midazolam 1′-hydroxylation
  IC50 at 5 min: 3.3 µM
CYP3A4/5; human, pH 7.4, probe midazolam (1′-hydroxylation), read-out: KI, inactivation of CYP3A4/5-mediated midazolam 1′-hydroxylation, mean±SE
  KI (inactivation): 0.54 ± 0.25 µM
CYP3A4/5; human, pH 7.4, probe midazolam (1′-hydroxylation), read-out: kinact, inactivation of CYP3A4/5-mediated midazolam 1′-hydroxylation, mean±SE (converted)
  kinact: 0.000183 s⁻¹
CYP3A4/5; human, pH 7.4, probe testosterone (6β-hydroxylation), read-out: IC50, direct inhibition of CYP3A4/5-mediated testosterone 6p-hydroxylation
  IC50 at 5 min: > 10 µM
CYP3A4/5; pH 7.4, probe testosterone (6β-hydroxylation), human liver microsomes, up to 10 μM, read-out: Maximum direct inhibition of CYP3A4/5-mediated testosterone 6p-hydroxylation
  inhibition at 5 min: 44%

— patent publication US20220193076A1, “METHODS OF TREATING BREAST CANCER WITH TUCATINIB” (Seagen Inc., priority 2019, published 2022)
